Reference: US6696495B2, “Treatment of disorders secondary to organic impairments” (Snowden Pharmaceuticals, LLC, priority 1998, dated 2004)

How the values were obtained:
[1] = tested on: Dementia, Alzheimer's-Type; test: Case history 24; assay type: in vivo, human; conditions: before sibutramine
Protocol: 24. The Symptoms Due to Dementia, Alzheimer's-Type
person one was diagnosed with Dementia. The symptoms they suffered from included memory loss and severe confusion. They tried a variety of treatments to relieve their symptoms including choldine esterase inhibitors, antidepressants, Ritilin, and aterol. […] They were then tested off of sibutramine. […] They began to suffer from a lowered I.Q. and their memory deteriorated.

[2] = tested on: Severe Atypical Psychosis; test: Case history 1, Sibutramine Patient No. 97; assay type: in vivo, human; conditions: treatments before sibutramine
[3] = tested on: Non-Tourette's tics, obsessive-compulsive rituals, and attention deficit hyperactive disorder (ADHD); conditions: before sibutramine
Huntington's Disease = test: Case history 12, Sibutramine Patient No. 113; assay type: in vivo, human; conditions: after worsening of symptoms
[4] = tested on: Tourette's Disease Tics, Violence, and ADHD; test: Case history 8, Sibutramine Patient No. 47; assay type: in vivo, human; conditions: over six years before sibutramine
[5] = tested on: Asocial Behavior, Violence, and Hyposexuality; test: Case history 10, Sibutramine Patient No. 54; assay type: in vivo, human; conditions: before sibutramine
[6] = tested on: Sexual Function, ADD, and Rage Outbursts; test: Case history 3, Sibutramine Patient No. 100; assay type: in vivo, human; conditions: mood swings, cognitive, anger, sexual problems; before sibutramine
[7] = tested on: Sexual Gender Choice Change; test: Case history 7, Sibutramine Patient No. 99; assay type: in vivo, human; conditions: depression; impulsive behaviors, mood swings, epileptic symptoms
[8] = tested on: Tourette's Tics, Asocial Behavior, and Relief of Hyposexuality; conditions: before sibutramine
[9] = tested on: Severe Post-Traumatic Stress Reaction; conditions: for response of PTSD symptoms to other medications: before sibutramine
Protocol: Finally, this patient was taken off of fluoxetine 20 mg when sibutramine treatment was initiated.

[10] = tested on: ADHD Refractory to Other Treatments; assay type: in vivo, human; conditions: for response of ADHD to other medications: four years before sibutramine; for side effects of other medications: human, in vivo
Protocol: 16. ADHD Refractory to Other Treatments (Problem No. 6) Sibutramine Patient No. 16
The amphetamines made their nervous, jittery, and unable to sleep. […] They were started on sibutramine 10 mg every morning by mouth. […] After the first month, their dose was changed to 5 mg three times daily due to a five hour duration of effects.

[11] = tested on: Sexual Obsessive-Compulsive Behavior, ADD and Executive Function; test: Case history 6, Sibutramine Patient No. 77; assay type: in vivo, human; conditions: before sibutramine
[12] = tested on: frontal lobe executive function, ADHD, and hyposexuality; conditions: human, in vivo
Sexual Function and ADD = test: Case history 4, Sibutramine Patient No. 109; assay type: in vivo, human; conditions: before sibutramine
[13] = tested on: Torticollis, Lingual Dystonia and Dyskinesia; test: Case history 23; assay type: in vivo, human; conditions: in vivo

| Compound | response to previous medications (Huntington's Disease) | response to other medications [4] | response to other medications [6] | response to other medications [7] | response to other medications [8] | response of PTSD symptoms to other medications [9] | response of ADHD to other medications [10] | response to other medications [11] | further results |
| --- | --- | --- | --- | --- | --- | --- | --- | --- | --- |
| COC(=O)C(c1ccccc1)C1CCCCN1 (stereo not shown) [Ritilin] | – | – | – | – | – | – | – | – | response to other treatments [1]: None of these treatments had any effect on their symptoms |
| NC(=O)N1c2ccccc2C=Cc2ccccc21 [carbamazepine] | no longer responded | without any good results | helped with their mood swings but not with their anger, sexual, or cognitive problems | impulsive behaviors, mood swings, and epileptic symptoms were relieved | without success | unsuccessful | – | – | response of psychosis symptoms to other medications [2]: did not control their symptoms; response to other medications [3]: unsuccessful; response to other medications [5]: without any changes in their speech or mode of communication |
| C[C@H](N)Cc1ccccc1 [dextroamphetamine] | – | – | unsuccessful | – | without success | unsuccessful | without success | unsuccessful | – |
| CNCCC(Oc1ccc(C(F)(F)F)cc1)c1ccccc1 (stereo not shown) [fluoxetine] | no longer responded | – | – | refractory | – | – | – | – | response of psychosis symptoms to other medications [2]: without success; response to other medications [12]: unsuccessful; depression ([9]; human, in vivo): the depression and PTSD were relieved |
| NCC1(CC(=O)O)CCCCC1 [gabapentin] | no longer responded | without any good results | – | refractory | without success | – | – | – | – |
| COC(=O)C(c1ccccc1)C1CCCCN1 (stereo not shown) [methylphenidate] | – | without any good results | unsuccessful | refractory | without success | unsuccessful | without success | unsuccessful | response to other medications [3]: initially treated successfully; side effects of other medications [10]: made their sleepy; response to other medications [5]: without any changes in their speech or mode of communication; response to other medications [12]: Initially their attention problems responded |
| CCCC(CCC)C(=O)O [valproic acid] | – | without any good results | not helpful | – | without success | unsuccessful | – | unsuccessful | response to other medications (Sexual Function and ADD): helped their anger attacks but interfered with their concentration considerably and did not help their sexual problems |
| botulinum toxin | – | – | – | – | – | – | – | – | response to other treatment [13]: only temporarily relieved their symptoms |
| magnesium pemoline | – | without any good results | not helpful | – | without success | – | without success | unsuccessful | side effects of other medications [10]: made their sleepy; response to other medications (Sexual Function and ADD): unsuccessful |
